Columns and labels:
Conditions in all cases: synthetic library passage 3, intravenous, relative to wild-type AAV9
brain [1] = test: NGS fold enrichment of synthetic library (passage 3) in C57Bl/6 mice, first cross-species screen; type: in vivo
Outline: (§1)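 Passage-3 synthetic capsid library given intravenously […] to NHPs (2-4 years) and BALB/c or C57Bl/6 mice (n=3, 6-8 weeks). After e.g. 28 days, tissue RNA was RT-PCR amplified and NGS-sequenced; values are fold enrichment of each variant relative to wild-type AAV9.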

brain [2] = test: NGS fold enrichment of synthetic library (passage 3) in BALB/c mice, first cross-species screen; type: in vivo
Outline: as §1

[3] = test system: brain, spinal cord, and DRG of the NHPs; test: NGS fold enrichment of synthetic library (passage 3) in NHPs, first cross-species screen; type: in vivo, cynomolgus macaques (Macaca fascicularis)
Outline: as §1

[4] = RNA from brain of C57Bl/6 mice, NGS
[5] = RNA from brain of BALB/c mice, NGS
[6] = RNA from spinal cord of NHPs, NGS

Row | Sequence | Fold enrichment over AAV9 in the brain of Mice (C57Bl/6) (brain [1]; RNA NGS, brain of C57Bl/6 mice) | Fold enrichment over AAV9 in the brain of Mice (BALB/c) (brain [2]; RNA NGS, brain of BALB/c mice) | Fold enrichment over AAV9 in the brain of NHPs ([3]; RNA NGS, brain of NHPs) | Fold enrichment over AAV9 in the spinal cord of NHPs ([3]; RNA NGS, spinal cord of NHPs) | Fold enrichment over AAV9 in the brain of Mice (C57Bl/6) (brain [1]; [4]) | Fold enrichment over AAV9 in the brain of Mice (BALB/c) (brain [2]; [5]) | Fold enrichment over AAV9 in the brain of NHPs ([3]; RNA from brain of NHPs, NGS) | Fold enrichment over AAV9 in the spinal cord of NHPs [3, 6]
1 | GSGLKWSTLQNQQT | 1.134 fold | 2.442 fold | 1.556 fold | 0.000 fold | – | – | – | –
2 | GSGQNQYSSTNPQT | 0.544 fold | 0.535 fold | 1.542 fold | 2.251 fold | – | – | – | –
3 | GVVAHQPSGQNQQT | 0.910 fold | 2.267 fold | 2.103 fold | 0.152 fold | – | – | – | –
4 | GSGQNQHSAPFNQT | 0.759 fold | 0.870 fold | 1.969 fold | 0.499 fold | – | – | – | –
5 | GSGQNQRAVLNDQT | – | – | – | – | 0.556 fold | 0.259 fold | 1.242 fold | 3.023 fold
6 | GSEYGHKSGQNQQT | 5.198 fold | 5.332 fold | 6.308 fold | 2.750 fold | – | – | – | –
7 | GSGQNQQHVSSPRT | 1.847 fold | 0.938 fold | 2.176 fold | 1.279 fold | – | – | – | –
8 | GSGNPVSHLQNQQT | 0.583 fold | 0.310 fold | 1.121 fold | 1.037 fold | – | – | – | –
9 | GSGQRSPVLPNQQT | 0.434 fold | 0.526 fold | 2.369 fold | 6.230 fold | – | – | – | –
10 | GSGQNQQSLSGSFT | 0.745 fold | 0.883 fold | 1.105 fold | 0.735 fold | – | – | – | –
11 | GHTLTLSSGQNQQT | 0.648 fold | 0.606 fold | 3.405 fold | 5.648 fold | – | – | – | –
12 | GSGQNQQTSGTTNC | 1.040 fold | 0.806 fold | 1.854 fold | 8.161 fold | – | – | – | –
13 | GSGQNQQTGMSSVK | 1.451 fold | 0.679 fold | 2.109 fold | 4.544 fold | – | – | – | –
14 | GSRTVPVYGQNQQT | – | – | – | – | 1.226 fold | 0.969 fold | 1.371 fold | 0.363 fold
15 | GSGQNQQGTGVSHT | – | – | – | – | 1.417 fold | 0.749 fold | 1.371 fold | 4.295 fold
16 | GSGQSHMATLNQQT | 1.173 fold | 0.504 fold | 2.657 fold | 0.724 fold | – | – | – | –
17 | GSGQLSGIGGNQQT | 0.993 fold | 0.626 fold | 3.266 fold | 0.287 fold | – | – | – | –
18 | GSLVSVQTGQNQQT | 0.903 fold | 0.469 fold | 3.534 fold | 6.043 fold | – | – | – | –
19 | GSGQNQRATLSNQT | – | – | – | – | 0.947 fold | 0.723 fold | 1.339 fold | 1.084 fold
20 | GVSRGGPSGQNQQT | 0.750 fold | 0.591 fold | 1.028 fold | 1.611 fold | – | – | – | –
21 | GPGLPNHSGQNQQT | 1.197 fold | 0.659 fold | 2.486 fold | 1.992 fold | – | – | – | –
22 | GSSHTLALGQNQQT | 0.851 fold | 0.406 fold | 1.441 fold | 7.071 fold | – | – | – | –
23 | GSSVGVPSGQNQQT | – | – | – | – | 0.336 fold | 1.157 fold | 1.322 fold | 4.867 fold
24 | GSGQNSGVHFNQQT | – | – | – | – | 0.871 fold | 0.377 fold | 1.268 fold | 0.587 fold
25 | GSGQTSGLKQNQQT | 0.394 fold | 0.334 fold | 1.968 fold | 3.927 fold | – | – | – | –
26 | GSGQRNPLLLNQQT | 0.662 fold | 0.740 fold | 1.693 fold | 0.144 fold | – | – | – | –
